Measurements as given in US7351736B2, “Therapeutic compositions (II)” (priority 1998, dated 2008).
Where two headings read alike, the source gives them in different places. One block for each molecule: values may come before it.

Experiments:
[1] = liquid diet, glucose (47% of caloric content) substituted; cited from earlier work
[2] = system: primary hippocampal cultures; experiment: Hippocampal microisland cultures with or without amyloid β1-42; format: cell-based, Wistar embryos; conditions: for neuronal cell number per microisland (mean): increase from a mean of 30
Method: The serum free medium used from 0 to day 4 contained Neurobasal medium with B27 supplement diluted 50 fold (Life Technology, Gaithersburg, Md.) to which was added: 0.5 mM L-glutamine, 25 μM Na L-glutamate, 100 U/ml penicillin and 100 μg/ml streptomycin. After day 4, DMEM/F12 medium containing 5 μM insulin, 30 nM 1-thyroxine, […] progesterone, 30 nM Na selenite 100 U/ml penicillin and 100 μg/ml streptomycin were used.
The primary hippocampal cultures were removed from Wistar embryos on day 18 and dispersed by gentle agitation in a pipette. The suspension was centrifuged at 1,500×g for 10 min and the supernatant discarded. The pellet was resuspended in new media to a final cell count of […]. Ten μl of this suspension was pipetted into the center of poly D-lysine coated culture wells and the plates incubated at 38° C. for 4 hrs and then 400 μl of fresh Neurobasal media was added. After 2 days of incubation, half of the media was exchanged for fresh media and the incubation continued for 2 more days. After day 4, the medium was changed with DMEM/F12 medium containing 5 μM insulin, 30 nM 1-thyroxine, 20 nM progesterone, 30 nM Na selenite 100 U/ml penicillin and 100 μg/ml streptomycin. […] These media were exchanged 2 days later (day 8) and the cells were fixed on day 10 and stained with anti MAP2 (Boehringer Manheim, Indianapolis Ind.) to visualize neurons and vimentin and GFAP (Boehringer) to visualize glial cells.

[3] = parameters: species or system rats; conditions: rat, in vivo, 30 min
Method: Control rats (n=2) were killed at 60 and 180 minutes after ingestion of yoghurt while triolide fed rats were killed at 80, 140, 150 and 155 minutes. Blood samples were taken for assay of (R)-3-hydroxybutyrate. Brains were funnel frozen and later extracted in perchloric acid and extracts neutralised and assayed. Blood levels of (R)-3-hydroxybutyrate were measured using a […] assay of Anal. Biochem (1983) 131, p478-482. 1.0 ml of a solution made up from 2-amino-2-methyl-1-propanol (100 mM pH 9.9, 0.094 g/10 ml), NAD^+ (30 mM, 0.199 g/10 ml) and EDTA (4 mM, 0.015 g/10 ml) was added to each of a number of cuvettes and 4 μl sample or (R)-3-hydroxybutyrate control.
The ability of orally administered (R)-3-hydroxybutyrate and the linear oligomers of Comparative examples 1 and 2 to raise blood ketone body levels was investigated as follows. Rats were fasted overnight and then gavaged with 100 μl/100 g bodyweight of 4M (R)-3-hydroxybutyrate brought to pH 7.4 using methyl glucamine. Plasma levels of (R)-3-hydroxybutyrate were measured at 0.62 mM after 30 minutes as compared to 3 mM when 9M (R)-3-hydroxybutyrate is used.
This procedure was repeated with 2M solutions of the mixtures (R)-3-hydroxybutyrate oligomers and their acetoacetyl esters described in Comparative Examples 1 and 2.

[4] = unesterified state, room temperature; cited from earlier work
[5] = human, cited from earlier work
[6] = Oral administration of triolide in yoghurt to rats, plasma (R)-3-hydroxybutyrate; format: in vivo, Wistar rats; conditions: about 0.4 g triolide in yoghurt
Method: The ability of orally administered triolide to raise blood ketone levels was investigated as follows. The day before the experiment commenced, 12 Wistar rats weighing 316+10 g were placed in separate cages. They had no access to food for 15 hours prior to presentation with triolide containing compositions, but water was provided ad libitum.
On the morning of the experiment 0.64 g of triolide was mixed with 5 g Co-op brand Black Cherry yoghurt in separate feeding bowls for 9 of the rats. The remaining 3 rats were given 5 g of the yoghurt without the triolide as controls. The yoghurt containing bowls were placed in the cages and the rats timed while they ate. Two of the three control rats ate all the yoghurt and four of the […] ate approximately half the provided amount. The remaining six rats slept.
Control rats (n=2) were killed at 60 and 180 minutes after ingestion of yoghurt while triolide fed rats were killed at 80, 140, 150 and 155 minutes. Blood samples were taken for assay of (R)-3-hydroxybutyrate. Brains were funnel frozen and later extracted in perchloric acid and extracts neutralised and assayed. Blood levels of (R)-3-hydroxybutyrate were measured using a […] assay of Anal. Biochem (1983) 131, p478-482. […]

[7] = Rats fed triolide in 'Hob-Nob' biscuit, ill effects; format: in vivo; conditions: two rats fed approximately 1.5 g triolide each in 'Hob-Nob' biscuit; after two weeks
[8] = presence of (R)-3-hydroxybutyrate, whether β1-42 was present or not

Compound: CC(O)CCO (racemic) [racemic 1,3 butandiol]
blood (R)-3-hydroxybutyrate concentration [1]: 0.98 mM | blood acetoacetate concentration [1]: 0.33 mM | rise of blood ketone concentration [1]: about 10 fold

plasma level of (R)-3-hydroxybutyrate [3]: 3000 µM | plasma level of (R)-3-hydroxybutyrate ([3]; pH 7.4): 620 µM
Compound: C[C@@H](O)CC(=O)O [(R)-3-hydroxybutyrate, (R)-3-hydroxybutyric acid]
neuronal cell number per microisland (mean) ([2]; 8 mM (R)-3-hydroxybutyrate added to cultures containing amyloid β1-42): 70 cells per microisland | neuronal cell number per microisland (mean) ([2]; 8 mM (R)-3-hydroxybutyrate, no amyloid β1-42): 70 cells per microisland | length of axons [2, 8]: increased | number of dendritic outgrowths [2, 8]: increased

Compound: CC(=O)CC(=O)O [acetoacetate]
half time of spontaneous decarboxylation to acetone [4]: about 30 days

Compound: C[C@@H](O)CC(=O)[O-].[Na+] [sodium salts of (R)-3-hydroxybutyrate]
toxicity on intravenous infusion ([5]; in vivo, iv): non-toxic | decreasing leucine oxidation ([5]; intravenous infusion): ineffective | glucose free fatty acids and glycerol concentration ([5]; intravenous infusion): capable of decreasing

ill effects from ingestion of triolide [6]: no ill effects | melting point: 107 to 108 °C | ill effects [7]: no ill effects
Compound: C[C@@H]1CC(=O)O[C@H](C)CC(=O)O[C@H](C)CC(=O)O1 [triolide, (R,R,R)-4,8,12-trimethyl-1,5,9-trioxadodeca-2,6,10-trione]
